Results from publication PMC9951552 (Science translational medicine, 2022).
Several values for one entry are separate records, joined by “and”; a condition that tells them apart may be missing. Identical values can stand only once.

What was measured:
in vitro = conditions: human
PfPI3K = conditions: read-out: IC50 PfPI3K; in vitro; cited from earlier work
[1] = tested on: P. berghei ANKA GFP-Luc-SMcon sporozoites; assay: P. berghei liver stage assay; type: cell-based; conditions: Plasmodium berghei, HepG2, read-out: IC50, inhibition of parasite invasion of HepG2 liver cells (liver stage)
[2] = tested on: PfNF54 stage IV/V gametocytes; assay: Late-stage gametocytocidal luciferase reporter assay; type: cell-based; conditions: Plasmodium falciparum, 48 h, read-out: IC50, viability of late-stage gametocytes
[3] = tested on: PfNF54 stages II/III gametocytes; assay: Early-stage gametocytocidal luciferase reporter assay; type: cell-based; conditions: Plasmodium falciparum, read-out: inhibition of early-stage gametocytes
[4] = tested on: male gamete formation from stage V gametocytes; assay: Male gamete exflagellation inhibition assay; type: cell-based; conditions: Plasmodium falciparum, 48 h, read-out: inhibition of male gamete formation (EIA)
[5] = tested on: PfNF54 stage V gametocytes; assay: Standard membrane feeding assay; set-up: species or system Plasmodium falciparum; conditions: 2 μM, stage V gametocytes incubated 48 hours before feeding; mean ±SD
Pf3D7 = assay: P. falciparum NSG mouse model of infection, 4-day test; type: in vivo, Plasmodium falciparum; conditions: day 7, single daily oral dose for four days, NSG mice
Tolerability = type: in vivo; conditions: 10 mg/kg oral once daily, both animals
[6] = Whole-blood pharmacokinetics in NSG mouse efficacy study, LC-MS/MS; type: in vivo, NSG mice
PfNF54 strain = assay: In vitro ABS activity against PfNF54 strain; type: cell-based; conditions: Plasmodium falciparum, read-out: in vitro IC50 against PfNF54 strain
PI4Kβ (PF3D7_0509800) = PI4Kβ (PF3D7_0509800) (Plasmodium falciparum, UniProt Q8I406); assay: Kinobead chemoproteomic competition binding, Pf3D7 ABS extract; conditions: read-out: Kd app for PI4Kβ; Kinobeads, P. falciparum ABS extract
Chain of PI4Kβ (PF3D7_0509800) (Q8I406 1-1559): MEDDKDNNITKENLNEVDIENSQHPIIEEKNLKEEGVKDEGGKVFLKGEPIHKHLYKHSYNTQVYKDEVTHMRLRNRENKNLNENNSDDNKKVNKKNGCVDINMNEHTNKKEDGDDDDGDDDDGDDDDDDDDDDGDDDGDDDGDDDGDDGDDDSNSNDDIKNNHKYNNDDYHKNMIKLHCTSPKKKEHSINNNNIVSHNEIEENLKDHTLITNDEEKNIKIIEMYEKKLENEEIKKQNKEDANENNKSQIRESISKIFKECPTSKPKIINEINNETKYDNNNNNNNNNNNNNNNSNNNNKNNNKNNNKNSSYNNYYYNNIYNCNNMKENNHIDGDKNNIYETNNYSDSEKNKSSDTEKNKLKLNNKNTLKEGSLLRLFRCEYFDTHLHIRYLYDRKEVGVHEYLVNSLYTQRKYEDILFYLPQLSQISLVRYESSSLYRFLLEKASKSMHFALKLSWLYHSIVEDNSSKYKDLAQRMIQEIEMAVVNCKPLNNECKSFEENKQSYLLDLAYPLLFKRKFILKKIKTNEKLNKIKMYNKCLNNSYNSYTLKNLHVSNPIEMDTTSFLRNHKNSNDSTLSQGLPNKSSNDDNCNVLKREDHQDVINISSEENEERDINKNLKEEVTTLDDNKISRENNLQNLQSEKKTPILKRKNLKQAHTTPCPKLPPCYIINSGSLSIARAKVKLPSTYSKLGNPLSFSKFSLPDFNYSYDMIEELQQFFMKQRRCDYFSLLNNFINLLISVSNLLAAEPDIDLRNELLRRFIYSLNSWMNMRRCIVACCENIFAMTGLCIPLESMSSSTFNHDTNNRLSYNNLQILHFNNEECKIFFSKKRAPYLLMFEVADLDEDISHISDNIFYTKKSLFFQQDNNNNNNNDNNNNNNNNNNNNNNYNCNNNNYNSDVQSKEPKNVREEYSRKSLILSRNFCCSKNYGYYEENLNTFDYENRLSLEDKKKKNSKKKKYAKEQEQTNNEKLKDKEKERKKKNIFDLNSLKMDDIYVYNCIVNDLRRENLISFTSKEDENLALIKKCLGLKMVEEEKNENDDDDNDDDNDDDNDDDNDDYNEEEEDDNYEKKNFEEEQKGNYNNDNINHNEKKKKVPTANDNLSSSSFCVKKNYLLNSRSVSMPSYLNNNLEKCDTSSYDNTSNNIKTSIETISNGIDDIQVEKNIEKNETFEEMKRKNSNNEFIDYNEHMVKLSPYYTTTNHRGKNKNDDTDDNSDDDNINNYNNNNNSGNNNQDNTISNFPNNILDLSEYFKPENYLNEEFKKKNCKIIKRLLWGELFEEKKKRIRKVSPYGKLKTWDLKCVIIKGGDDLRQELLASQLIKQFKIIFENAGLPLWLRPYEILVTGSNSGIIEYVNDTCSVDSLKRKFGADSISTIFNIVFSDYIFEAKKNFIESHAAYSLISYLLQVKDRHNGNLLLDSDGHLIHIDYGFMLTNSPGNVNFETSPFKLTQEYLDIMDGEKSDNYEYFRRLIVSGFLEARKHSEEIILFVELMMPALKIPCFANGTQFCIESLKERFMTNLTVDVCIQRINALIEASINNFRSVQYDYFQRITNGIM

[7] = target: PI3K (Vps34; PF3D7_0515300) (Plasmodium falciparum, UniProt Q8I3V5); assay: Lipid-Kinobead chemoproteomic competition binding, Pf3D7 ABS extract; conditions: read-out: Kd app for PI3K; Lipid-Kinobeads, N = 1
Chain of PI3K (Vps34; PF3D7_0515300) (Q8I3V5 1-2133): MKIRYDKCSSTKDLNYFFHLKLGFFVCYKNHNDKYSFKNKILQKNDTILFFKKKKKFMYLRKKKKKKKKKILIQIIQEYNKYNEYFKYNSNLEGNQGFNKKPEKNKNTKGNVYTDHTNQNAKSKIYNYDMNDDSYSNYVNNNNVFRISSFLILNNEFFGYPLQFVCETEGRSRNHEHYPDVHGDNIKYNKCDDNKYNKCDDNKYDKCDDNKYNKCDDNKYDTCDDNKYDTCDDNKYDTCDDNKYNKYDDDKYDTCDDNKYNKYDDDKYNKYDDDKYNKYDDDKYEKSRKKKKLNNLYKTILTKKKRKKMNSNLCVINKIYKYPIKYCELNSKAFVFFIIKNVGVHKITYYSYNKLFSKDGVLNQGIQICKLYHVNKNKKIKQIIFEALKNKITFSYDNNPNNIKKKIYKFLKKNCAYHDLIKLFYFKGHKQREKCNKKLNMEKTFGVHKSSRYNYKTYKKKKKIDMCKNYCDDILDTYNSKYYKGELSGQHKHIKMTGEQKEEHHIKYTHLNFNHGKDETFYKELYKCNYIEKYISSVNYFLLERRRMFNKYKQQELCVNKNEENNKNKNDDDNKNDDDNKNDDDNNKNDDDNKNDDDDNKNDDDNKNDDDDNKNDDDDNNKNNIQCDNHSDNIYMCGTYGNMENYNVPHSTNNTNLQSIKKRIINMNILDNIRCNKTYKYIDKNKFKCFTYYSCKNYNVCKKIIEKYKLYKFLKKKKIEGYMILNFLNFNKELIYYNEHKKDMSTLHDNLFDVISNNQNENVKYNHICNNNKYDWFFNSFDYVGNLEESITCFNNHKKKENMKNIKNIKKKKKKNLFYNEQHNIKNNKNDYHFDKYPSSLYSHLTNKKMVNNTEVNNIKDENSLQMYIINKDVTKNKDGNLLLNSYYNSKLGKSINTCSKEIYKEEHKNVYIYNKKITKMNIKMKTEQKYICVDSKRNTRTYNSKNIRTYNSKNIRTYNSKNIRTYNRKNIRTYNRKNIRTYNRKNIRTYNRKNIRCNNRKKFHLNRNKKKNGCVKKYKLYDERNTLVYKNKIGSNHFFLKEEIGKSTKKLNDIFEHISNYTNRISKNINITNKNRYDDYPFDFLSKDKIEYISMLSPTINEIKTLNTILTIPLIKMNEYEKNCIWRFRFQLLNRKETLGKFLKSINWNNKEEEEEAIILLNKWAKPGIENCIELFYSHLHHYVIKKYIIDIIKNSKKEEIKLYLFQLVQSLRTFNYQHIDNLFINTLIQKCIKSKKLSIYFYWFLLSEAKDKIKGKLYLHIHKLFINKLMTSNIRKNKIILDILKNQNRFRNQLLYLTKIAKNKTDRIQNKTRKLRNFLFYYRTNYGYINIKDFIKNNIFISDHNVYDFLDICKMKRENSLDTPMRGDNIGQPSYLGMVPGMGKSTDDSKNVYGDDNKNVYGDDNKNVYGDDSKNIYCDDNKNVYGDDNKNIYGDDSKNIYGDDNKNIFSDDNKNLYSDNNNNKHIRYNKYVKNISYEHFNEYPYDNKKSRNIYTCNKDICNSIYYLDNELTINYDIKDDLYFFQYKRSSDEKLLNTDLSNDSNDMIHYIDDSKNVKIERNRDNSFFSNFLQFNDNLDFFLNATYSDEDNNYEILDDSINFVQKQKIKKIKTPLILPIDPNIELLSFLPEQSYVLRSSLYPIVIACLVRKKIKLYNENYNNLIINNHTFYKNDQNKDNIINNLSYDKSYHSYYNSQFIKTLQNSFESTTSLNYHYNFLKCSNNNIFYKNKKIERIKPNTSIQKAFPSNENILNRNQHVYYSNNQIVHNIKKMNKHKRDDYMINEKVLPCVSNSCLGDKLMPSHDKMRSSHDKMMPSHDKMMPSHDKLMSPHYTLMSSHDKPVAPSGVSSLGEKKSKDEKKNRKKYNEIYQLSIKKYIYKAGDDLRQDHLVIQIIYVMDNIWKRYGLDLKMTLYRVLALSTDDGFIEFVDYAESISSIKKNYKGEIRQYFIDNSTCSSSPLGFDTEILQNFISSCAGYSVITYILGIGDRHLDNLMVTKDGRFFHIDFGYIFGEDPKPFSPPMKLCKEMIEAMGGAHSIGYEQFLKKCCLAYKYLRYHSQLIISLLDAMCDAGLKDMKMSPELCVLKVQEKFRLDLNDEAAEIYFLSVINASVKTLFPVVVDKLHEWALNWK

[8] = target: T1, cdc2-related protein kinase 5 (CRK5; PF3D7_0615500) (Plasmodium falciparum, UniProt C6KSZ6); assay: Kinobead chemoproteomic competition binding, Pf3D7 ABS extract; conditions: read-out: Kd app for CRK5; Kinobeads, P. falciparum ABS extract
T1 sequence (C6KSZ6 1-705): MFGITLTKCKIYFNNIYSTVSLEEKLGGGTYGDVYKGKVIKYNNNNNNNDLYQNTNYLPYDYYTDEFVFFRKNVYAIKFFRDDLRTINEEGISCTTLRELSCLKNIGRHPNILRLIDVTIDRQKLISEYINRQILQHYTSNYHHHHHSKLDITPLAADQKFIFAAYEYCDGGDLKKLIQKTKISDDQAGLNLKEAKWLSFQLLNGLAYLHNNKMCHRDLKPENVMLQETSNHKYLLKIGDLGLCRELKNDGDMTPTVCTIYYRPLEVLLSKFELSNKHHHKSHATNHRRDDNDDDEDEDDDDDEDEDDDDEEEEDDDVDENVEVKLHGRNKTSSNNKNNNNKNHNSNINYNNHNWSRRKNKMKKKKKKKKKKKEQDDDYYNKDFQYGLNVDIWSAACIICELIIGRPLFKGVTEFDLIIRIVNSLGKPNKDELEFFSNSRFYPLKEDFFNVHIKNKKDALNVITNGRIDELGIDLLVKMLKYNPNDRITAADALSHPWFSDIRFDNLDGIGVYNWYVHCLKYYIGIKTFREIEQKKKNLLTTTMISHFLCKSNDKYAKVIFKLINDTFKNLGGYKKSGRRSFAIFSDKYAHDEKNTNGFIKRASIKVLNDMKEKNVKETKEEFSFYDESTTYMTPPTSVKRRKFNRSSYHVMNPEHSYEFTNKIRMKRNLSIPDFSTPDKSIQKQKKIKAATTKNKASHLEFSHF

[9] = target: casein kinase 1 (CK1; PF3D7_1136500) (Plasmodium falciparum, UniProt Q8IHZ9); assay: as above
Chain of casein kinase 1 (CK1; PF3D7_1136500) (Q8IHZ9 whole entry): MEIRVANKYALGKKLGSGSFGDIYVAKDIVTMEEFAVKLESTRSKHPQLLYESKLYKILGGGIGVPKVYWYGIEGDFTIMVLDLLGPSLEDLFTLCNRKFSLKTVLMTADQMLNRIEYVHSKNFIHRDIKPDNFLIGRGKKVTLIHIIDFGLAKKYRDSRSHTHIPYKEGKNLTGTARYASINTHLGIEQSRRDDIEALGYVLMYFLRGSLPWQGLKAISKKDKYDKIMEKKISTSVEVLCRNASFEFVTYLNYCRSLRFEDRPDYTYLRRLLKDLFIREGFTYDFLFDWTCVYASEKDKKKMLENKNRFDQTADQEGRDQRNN

[10] = target: T2, protein kinase 2 (PK2; PF3D7_1238900) (Plasmodium falciparum, UniProt Q8I534); assay: as above; conditions: read-out: Kd app for PK2; Kinobeads, P. falciparum ABS extract
T2 sequence (Q8I534 1-509): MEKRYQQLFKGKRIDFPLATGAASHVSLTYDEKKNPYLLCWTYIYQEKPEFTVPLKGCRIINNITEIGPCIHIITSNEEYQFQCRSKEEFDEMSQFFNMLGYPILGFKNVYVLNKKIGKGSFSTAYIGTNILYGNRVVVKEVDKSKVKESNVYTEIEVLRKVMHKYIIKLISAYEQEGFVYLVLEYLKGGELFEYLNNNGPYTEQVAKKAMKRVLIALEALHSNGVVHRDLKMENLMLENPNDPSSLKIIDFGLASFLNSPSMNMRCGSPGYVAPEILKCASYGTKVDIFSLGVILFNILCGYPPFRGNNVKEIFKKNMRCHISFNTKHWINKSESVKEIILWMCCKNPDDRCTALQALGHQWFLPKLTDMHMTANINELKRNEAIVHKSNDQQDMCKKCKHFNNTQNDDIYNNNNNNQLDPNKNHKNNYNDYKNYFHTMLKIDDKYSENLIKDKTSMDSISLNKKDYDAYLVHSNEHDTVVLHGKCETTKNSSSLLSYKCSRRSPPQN

Pf3D7 trophozoites = assay: Metabolomic perturbation profiling by LC-MS; type: cell-based, Plasmodium falciparum; conditions: 10-fold the IC50 for 2.5 hours, vs no-drug control
[11] = tested on: PKG (PF3D7_1436600) cKD parasite line; assay: Susceptibility assay with PKG conditional knockdown line; conditions: low aTc (2 nM) vs high aTc
[12] = tested on: PI3K (PF3D7_0515300) cKD parasite line; assay: Susceptibility assay with PI3K conditional knockdown line; conditions: no aTc vs high aTc
[13] = tested on: control cell line expressing an aptamer-regulatable fluorescent protein; assay: Susceptibility assay with aptamer-regulatable control line; conditions: low vs high aTc

## COc1ccc(C[C@H](N)C(=O)N[C@H]2[C@@H](O)[C@H](n3cnc4c(N(C)C)ncnc43)O[C@@H]2CO)cc1 [Puromycin]
In vitro
  IC50: 588 ± 3 nM

## Nc1ccc(-c2ccc3ncc4ccc(=O)n(-c5cccc(C(F)(F)F)c5)c4c3c2)cn1 [Torin-2]
PfPI3K
  IC50: 0.6 nM

## CC(C)n1nc(-c2ccc3oc(N)nc3c2)c2c(N)ncnc21 [sapanisertib]
[1]
  IC50: 134 nM
[2]
  IC50: 538 nM
[3]
  inhibition at 5 µM: 30%
[4]
  inhibition at 2 µM: 89%
[5]
  transmission-reducing activity (TRA), reduction in mean oocyst formation: 54%
Pf3D7
  ED90 (dose reducing parasitemia by 90% vs untreated control): 0.88 mg/kg
Tolerability
  weight loss (humane end point reached before day 7): ≥ 15%
[6]; 0.05 mg/kg oral
  whole-blood exposure level (below lowest limit of quantification): < 1 ng/mL
[6]; 0.1 mg/kg oral
  whole-blood exposure level (below lowest limit of quantification): < 1 ng/mL
PfNF54 strain
  IC50: 58 nM and 0.018 µg/mL
PI4Kβ (PF3D7_0509800)
  Kd: ≤ 50 nM
[7]
  Kd: ≤ 50 nM and 50 nM
[8]
  Kd: < 1000 nM
[9]
  Kd: < 1000 nM
[10]
  Kd: < 1000 nM
Pf3D7 trophozoites
  effect on hemoglobin-derived peptide levels: disruption and reduction
[11]
  differential susceptibility on PKG knockdown: did not reveal differential susceptibility
[12]
  differential susceptibility on PI3K knockdown: did not reveal differential susceptibility
[13]
  differential susceptibility, aptamer-regulatable control line: did not reveal differential susceptibility
